Test results as given in patent publication US20250073351A1, “IMPROVED COMPOSITIONS FOR DELIVERY OF MRNA” (TRANSLATE BIO, INC., priority 2021, published 2025).

What follows are compounds tested on lungs of mice (assay: In vivo screen of cationic lipids for pulmonary delivery of FFL mRNA-LNP (IVIS imaging)). Conditions: LNP with DOPE, DMG-PEG2K, optionally cholesterol; about 5 hours post-dose.
Protocol: In this example, various cationic lipids were tested for in Wvo efficacy when mRNA encapsulated in lipid nanoparticles (mRNA-LNP) were administered to mice by pulmonary delivery. The cationic lipids were tested for both potency, as determined by levels of protein production, and tolerability, as determined by side effects associated with clearance and metabolism.
About 150 cationic lipids were tested. (FIG. 16). Each cationic lipid was used in preparing lipid nanoparticles encapsulating mRNA encoding firefly luciferase protein (FFL mRNA) according to methods known in the art. For example, suitable methods for mRNA encapsulation include methods described in International Publication Nos. WO2016/004318 and WO 2018/089801, which are hereby incorporated by reference in their entirety. The tested lipid nanoparticles comprised a lipid component consisting of a cationic lipid, a non-cationic lipid (DOPE), a PEG-modified lipid (DMG-PEG2K), and optionally cholesterol.
Lipid nanoparticle formulations comprising FFL mRNA were administered to mice. At approximately 5 hours post-dose, the animals were dosed with luciferin by intraperitoneal injection and all animals were imaged using an IVIS imaging system to measure luciferase production in the lung. […] Some cationic lipids remarkably had greater than 50-fold increase in pulmonary protein expression as compared to other cationic lipids.

Row | SMILES | potency as determined by the average radiance detected in mouse lungs
1 | CCCCCCCCOC(=O)CC(CC(=O)OCCCCCCCC)(OC(=O)CCN(C)C)C(=O)OCCCCCCCC [TL1-01D-DMA, trioctyl 2-((3-(dimethylamino)propanoyl)oxy)propane-1,2,3-tricarboxylate] | particularly high potency
2 | CCCCCCCCCCCCCCOC(=O)CC(CC(=O)OCCCCCCCCCCCCCC)(OC(=O)CCN(C)C)C(=O)OCCCCCCCCCCCCCC [TL1-04D-DMA] | particularly high potency
3 | CCCCC/C=C\C/C=C\CCCCCCCC(=O)OCC(COC(=O)CCCCCCC/C=C\C/C=C\CCCCC)(COC(=O)CCCCCCC/C=C\C/C=C\CCCCC)NCCS(=O)(=O)NCCCN(C)C [GL-TES-SA-DMP-E18-2] | particularly high potency
4 | CCCCCCCCC(O)CN(CCCCC(=O)OCCN1CC(C)N(CCOC(=O)CCCCN(CC(O)CCCCCCCC)CC(O)CCCCCCCC)CC1C)CC(O)CCCCCCCC (stereo not drawn) [HEP-E4-E10] | particularly high potency
5 | CCCCC/C=C\C/C=C\CCCCCCCC(=O)OCC(COC(=O)CCCCCCC/C=C\C/C=C\CCCCC)(COC(=O)CCCCCCC/C=C\C/C=C\CCCCC)NCCS(=O)(=O)NCCN(C)C [GL-TES-SA-DME-E18-2, 2-((2-(N-(2-(dimethylamino)ethyl)sulfamoyl)ethyl)amino)-2-((((9Z,12Z)-octadeca-9,12-dienoyl)oxy)methyl)propane-1,3-diyl (9Z,9′Z,12Z,12′Z)-bis(octadeca-9,12-dienoate)] | particularly high potency
6 | CCCCCCCCC(O)CN(CCCC(=O)OCCN1CC(C)N(CCOC(=O)CCCN(CC(O)CCCCCCCC)CC(O)CCCCCCCC)CC1C)CC(O)CCCCCCCC (stereo not drawn) [HEP-E3-E10] | particularly high potency
